# Reference: US20180251431A1 (VERTEX PHARMACEUTICALS INCORPORATED, priority 2016, published 2018)
# pIC50: −log10 of the molar value.
# System: HEK293 cells
# Assay: HEK293 VLCFA-LPC IC50 determination (13C-labeled C26:0 LPC by UHPLC/MS)
# Type: cell-based, human
# Conditions: Homo sapiens, HEK293, HEK293 cells; average of one or more replicates; read-out: Average HEK293 IC50
# How it was run: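 Suspension HEK293 cells (final 0.5 million/mL after mixing with equal volume) incubated 48 hours with compound plus 13C-acetate (1.0 mg/mL in added media), shaking at 37° C. Lipids extracted with hexane/isopropanol or methanol, C13:0 LPC standard. UHPLC/MS of 13C-labeled C26:0 LPC (638.500/104.100 m/z); IC50 by four-parameter fit.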
row,Compound,pIC50
1,"O=C(Cc1ccccc1)Nc1ccn(-c2ccc(F)cc2)n1 [Compound 181, N-[1-(4-fluorophenyl)pyrazol-3-yl]-2-phenyl-acetamide]",6.60
2,"O=C(Nc1ccn(-c2ccc(F)cc2)n1)C1(c2ccccc2F)CC1 [Compound 182, 1-(2-fluorophenyl)-N-[1-(4-fluorophenyl)pyrazol-3-yl]cyclopropanecarboxamide]",7.13
3,"O=C(Cc1ccccc1F)Nc1ccn(-c2ccc(F)cc2)n1 [Compound 183, 2-(2-fluorophenyl)-N-[1-(4-fluorophenyl)pyrazol-3-yl]acetamide]",6.77
4,"O=C(Nc1ccn(-c2ccc(F)cc2)n1)C1(c2ccccc2)CC1 [Compound 184, N-[1-(4-fluorophenyl)pyrazol-3-yl]-1-phenyl-cyclopropanecarboxamide]",6.55
5,"O=C(Cc1ccccc1)Nc1ccn(-c2ccccc2F)n1 [Compound 185, N-[1-(2-fluorophenyl)pyrazol-3-yl]-2-phenyl-acetamide]",6.33
6,"O=C(Nc1ccn(-c2ccccc2F)n1)C1(c2ccccc2F)CC1 [Compound 186, 1-(2-fluorophenyl)-N-(1-(2-fluorophenyl)-1H-pyrazol-3-yl)cyclopropane-1-carboxamide]",6.85
7,"O=C(Cc1ccccc1F)Nc1ccn(-c2ccccc2F)n1 [Compound 187, 2-(2-fluorophenyl)-N-[1-(2-fluorophenyl)pyrazol-3-yl]acetamide]",6.28
8,"O=C(Nc1ccn(-c2ccccc2F)n1)C1(c2ccccc2)CC1 [Compound 188, N-[1-(2-fluorophenyl)pyrazol-3-yl]-1-phenyl-cyclopropanecarboxamide]",6.85
9,"O=C(Cc1ccccc1)Nc1ccn(-c2ccc(F)c(F)c2)n1 [Compound 189, N-[1-(3,4-difluorophenyl)pyrazol-3-yl]-2-phenyl-acetamide]",6.64
10,"O=C(Nc1ccn(-c2ccc(F)c(F)c2)n1)C1(c2ccccc2F)CC1 [Compound 190, N-[1-(3,4-difluorophenyl)pyrazol-3-yl]-1-(2-fluorophenyl)cyclopropanecarboxamide]",6.82
11,"O=C(Cc1ccccc1F)Nc1ccn(-c2ccc(F)c(F)c2)n1 [Compound 191, N-[1-(3,4-difluorophenyl)pyrazol-3-yl]-2-(2-fluorophenyl)acetamide]",6.62
12,"O=C(Nc1ccn(-c2ccc(F)c(F)c2)n1)C1(c2ccccc2)CC1 [Compound 192, N-[1-(3,4-difluorophenyl)pyrazol-3-yl]-1-phenyl-cyclopropanecarboxamide]",6.22
13,"O=C(Cc1ccccc1)Nc1ccn(-c2ccc(Cl)c(F)c2)n1 [Compound 193, N-[1-(4-chloro-3-fluoro-phenyl)pyrazol-3-yl]-2-phenyl-acetamide]",< 5.30
14,"O=C(Nc1ccn(-c2ccc(Cl)c(F)c2)n1)C1(c2ccccc2F)CC1 [Compound 194, N-[1-(4-chloro-3-fluoro-phenyl)pyrazol-3-yl]-1-(2-fluorophenyl)cyclopropanecarboxamide]",< 5.30
15,"O=C(Cc1ccccc1F)Nc1ccn(-c2ccc(Cl)c(F)c2)n1 [Compound 195, N-[1-(4-chloro-3-fluoro-phenyl)pyrazol-3-yl]-2-(2-fluorophenyl)acetamide]",< 5.70
16,"O=C(Nc1ccn(-c2ccc(Cl)c(F)c2)n1)C1(c2ccccc2)CC1 [Compound 196, N-[1-(4-chloro-3-fluoro-phenyl)pyrazol-3-yl]-1-phenyl-cyclopropanecarboxamide]",< 5.30
17,"O=C(Cc1ccccc1)Nc1ccn(-c2ccc(F)c(Cl)c2)n1 [Compound 197, N-[1-(3-chloro-4-fluoro-phenyl)pyrazol-3-yl]-2-phenyl-acetamide]",< 5.30
18,"O=C(Nc1ccn(-c2ccc(F)c(Cl)c2)n1)C1(c2ccccc2F)CC1 [Compound 198, N-[1-(3-chloro-4-fluoro-phenyl)pyrazol-3-yl]-1-(2-fluorophenyl)cyclopropanecarboxamide]",6.14
19,"O=C(Cc1ccccc1F)Nc1ccn(-c2ccc(F)c(Cl)c2)n1 [Compound 199, N-[1-(3-chloro-4-fluoro-phenyl)pyrazol-3-yl]-2-(2-fluorophenyl)acetamide]",< 5.30
20,"O=C(Nc1ccn(-c2ccc(F)c(Cl)c2)n1)C1(c2ccccc2)CC1 [Compound 200, N-[1-(3-chloro-4-fluoro-phenyl)pyrazol-3-yl]-1-phenyl-cyclopropanecarboxamide]",6.15
21,"O=C(Nc1ccn(-c2cncc(F)c2)n1)C1(c2ccccc2)CC1 [Compound 201, N-[1-(5-fluoro-3-pyridyl)pyrazol-3-yl]-1-phenyl-cyclopropanecarboxamide]",7.34
22,"O=C(Nc1ccn(-c2ccnnc2)n1)C1(c2ccccc2F)CC1 [Compound 202, 1-(2-fluorophenyl)-N-(1-pyridazin-4-ylpyrazol-3-yl)cyclopropanecarboxamide]",7.02
23,"O=C(Cc1ccccc1F)Nc1ccn(-c2ccnc(F)c2)n1 [Compound 203, 2-(2-fluorophenyl)-N-[1-(2-fluoro-4-pyridyl)pyrazol-3-yl]acetamide]",7.00
24,"O=C(Cc1ccccc1F)Nc1ccn(-c2cncc(F)c2)n1 [Compound 204, 2-(2-fluorophenyl)-N-[1-(5-fluoro-3-pyridyl)pyrazol-3-yl]acetamide]",7.01

row,Compound,pIC50
1,"O=C(Cc1ccccc1)Nc1ccn(-c2cncc(F)c2)n1 [Compound 205, N-[1-(5-fluoro-3-pyridyl)pyrazol-3-yl]-2-phenyl-acetamide]",6.14
2,"O=C(Nc1ccn(-c2ccncn2)n1)C1(c2ccccc2F)CC1 [Compound 206, 1-(2-fluorophenyl)-N-(1-pyrimidin-4-ylpyrazol-3-yl)cyclopropanecarboxamide]",7.47
3,"O=C(Nc1ccn(-c2ccncn2)n1)C1(c2ccccc2)CC1 [Compound 207, 1-phenyl-N-(1-pyrimidin-4-ylpyrazol-3-yl)cyclopropanecarboxamide]",7.44
4,"O=C(Cc1ccccc1F)Nc1ccn(-c2ccncn2)n1 [Compound 208, 2-(2-fluorophenyl)-N-(1-pyrimidin-4-ylpyrazol-3-yl)acetamide]",5.64
5,"O=C(Cc1ccccc1)Nc1ccn(-c2ccncn2)n1 [Compound 209, 2-phenyl-N-(1-pyrimidin-4-ylpyrazol-3-yl)acetamide]",5.64
6,"O=C(Nc1ccn(-c2ccccn2)n1)C1(c2ccccc2F)CC1 [Compound 210, 1-(2-fluorophenyl)-N-[1-(2-pyridyl)pyrazol-3-yl]cyclopropanecarboxamide]",6.77
7,"O=C(Cc1ccccc1F)Nc1ccn(-c2ccccn2)n1 [Compound 211, 2-(2-fluorophenyl)-N-[1-(2-pyridyl)pyrazol-3-yl]acetamide]",5.77
8,"O=C(Nc1ccn(-c2ccccn2)n1)C1(c2ccccc2)CC1 [Compound 212, 1-phenyl-N-[1-(2-pyridyl)pyrazol-3-yl]cyclopropanecarboxamide]",6.72
9,"O=C(Cc1ccccc1)Nc1ccn(-c2cccnc2)n1 [Compound 213, 2-phenyl-N-(1-(pyridin-3-yl)-1H-pyrazol-3-yl)acetamide]",5.92
10,"O=C(Nc1ccn(-c2cccnc2)n1)C1(c2ccccc2F)CC1 [Compound 214, 1-(2-fluorophenyl)-N-[1-(3-pyridyl)pyrazol-3-yl]cyclopropanecarboxamide]",7.35
11,"O=C(Nc1ccn(-c2cnccn2)n1)C1(c2ccccc2F)CC1 [Compound 215, 1-(2-fluorophenyl)-N-(1-pyrazin-2-ylpyrazol-3-yl)cyclopropanecarboxamide]",6.21
12,"O=C(Cc1ccccc1F)Nc1ccn(-c2cnccn2)n1 [Compound 216, 2-(2-fluorophenyl)-N-(1-pyrazin-2-ylpyrazol-3-yl)acetamide]",< 5.30
13,"O=C(Nc1ccn(-c2cncs2)n1)C1(c2ccccc2F)CC1 [Compound 217, 1-(2-fluorophenyl)-N-(1-thiazol-5-ylpyrazol-3-yl)cyclopropanecarboxamide]",7.08
14,"O=C(Cc1ccccc1)Nc1ccn(-c2cnccn2)n1 [Compound 218, 2-phenyl-N-(1-pyrazin-2-ylpyrazol-3-yl)acetamide]",< 5.70
15,"O=C(Cc1cnccn1)Nc1ccn(-c2ccccc2)n1 [Compound 219, N-(1-phenylpyrazol-3-yl)-2-pyrazin-2-yl-acetamide]",< 5.30
16,"O=C(Cc1ncccn1)Nc1ccn(-c2ccccc2)n1 [Compound 220, N-(1-phenylpyrazol-3-yl)-2-pyrimidin-2-yl-acetamide]",< 5.70
17,"O=C(Cc1ncccn1)Nc1ccn(-c2ccnc(F)c2)n1 [Compound 221, N-[1-(2-fluoro-4-pyridyl)pyrazol-3-yl]-2-pyrimidin-2-yl-acetamide]",< 5.30
18,"O=C(Nc1ccn(-c2ccnc(F)c2)n1)C1(c2cccnc2)CC1 [Compound 222, N-[1-(2-fluoro-4-pyridyl)pyrazol-3-yl]-1-(3-pyridyl)cyclopropanecarboxamide]",5.70
19,"O=C(Nc1ccn(-c2ccnc(F)c2)n1)C1(c2ccccn2)CC1 [Compound 223, N-[1-(2-fluoro-4-pyridyl)pyrazol-3-yl]-1-(2-pyridyl)cyclopropanecarboxamide]",7.15
20,"O=C(Nc1ccn(-c2ccccc2)n1)C1(c2cccnc2)CC1 [Compound 224, N-(1-phenylpyrazol-3-yl)-1-(3-pyridyl)cyclopropanecarboxamide]",5.85
21,"O=C(Nc1ccn(-c2ccccc2)n1)C1(c2ccccn2)CC1 [Compound 225, N-(1-phenylpyrazol-3-yl)-1-(2-pyridyl)cyclopropanecarboxamide]",7.12
22,"N#Cc1ccc(C2(C(=O)Nc3ccn(-c4ccnc(F)c4)n3)CC2)cc1 [Compound 226, 1-(4-cyanophenyl)-N-[1-(2-fluoro-4-pyridyl)pyrazol-3-yl]cyclopropanecarboxamide]",6.96
23,"N#Cc1ccc(C2(C(=O)Nc3ccn(-c4ccccc4)n3)CC2)cc1 [Compound 227, 1-(4-cyanophenyl)-N-(1-phenylpyrazol-3-yl)cyclopropanecarboxamide]",6.54
